From PubChem BioAssay AID1324 (NMMLSC, 2008)
pEC50: −log10 of the molar value. Activity calls are given as the source filed them. No rule for the calls is given here.

What follows are molecules tested against glutathione S-transferase (GST-GSH binding) (assay: GST–glutathione interaction disruption – biochemical, multiplex beads, flow cytometry, HPSMTB buffer, profiling panel (AID 1324;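 also: glutathione beads loaded with GST-green fluorescent protein and no fluorescent Bim peptide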)). Settings: multiplex bead flow cytometry, MCF.
In the case of `O=C1c2ccccc2-c2onc3ccc(NCc4ccco4)c1c23`, the EC50 was “inactive”. Molecule `CN(/N=C/c1ccncc1)C1=NS(=O)(=O)c2ccccc21` has a pEC50 of 5.50. With `O=C1c2ccccc2-c2onc3ccc(NCCCn4ccnc4)c1c23` the EC50 was “inactive”. In the case of `Cc1ccnc(Nc2nc(-c3c(C)nc4sccn34)cs2)c1`, the EC50 was “inactive”. Molecule `O=C(Nc1ccc2nc(-c3ccco3)c(-c3ccco3)nc2c1)NC1CC1` has a pEC50 of 5.08. `Cc1cc(C)nc(SCc2cc(=O)c(OC(=O)c3ccc(Cl)c([N+](=O)[O-])c3)co2)n1` showed a pEC50 of 5.21.

Same assay, conditions: multiplex bead flow cytometry, MCF, hits give high values, concentration not given here
For `Cn1c(CCNC(=O)C2CCCCC2)nc2cc(NC(=O)c3cccs3)ccc21`, the percent span inhibition was “inactive”. With `Cc1ccc(NC(=O)C/C(N)=N/OC(=O)c2ccccc2)cc1` the percent span inhibition was “inactive”. For `O=C(CCCN1C(=O)c2cccc3cccc(c23)C1=O)N1CCN(c2ccccn2)CC1`, the percent span inhibition was “inactive”. In the case of `Cc1cc(C)nc(/N=C(\N)N2CCc3ccccc32)n1`, the percent span inhibition was “inactive”. For `CC1Cc2ccccc2N1C(=O)CSc1nnnn1-c1ccc2c(c1)OCCO2` (stereo not given), the percent span inhibition was “inactive”. With `CCN1CCN(c2ccc(NC(=O)c3cccc4ncccc34)cc2)CC1` the percent span inhibition was “inactive”. For `Cc1ccc(S(=O)(=O)N(C)CC(=O)N2CCc3ccccc32)cc1`, the percent span inhibition was “inactive”. With `CCOC(=O)c1[nH]cnc1C(=O)NC(C)C` the percent span inhibition was “inactive”. `CCOC(=O)C1CCN(C(=O)Nc2ccc3nc(-c4ccco4)c(-c4ccco4)nc3c2)CC1` was tested, and the percent span inhibition was “inactive”. `Cc1ccc(NC(=O)CC2S/C(=N/N=C/c3c[nH]c4ccccc34)NC2=O)cc1` (stereo not given) was tested, and the percent span inhibition was “inactive”. With `CCOc1ccccc1NC(=O)CSc1ccc2nnc(-c3cccnc3)n2n1` the percent span inhibition was “inactive”. With `CCOC(=O)C1=C(CP(=O)(c2ccccc2)c2ccccc2)NC(=O)NC1c1ccc(OC)cc1` (stereo not given) the percent span inhibition was “inactive”. In the case of `COCCN=c1scc(-c2ccco2)n1/N=C/c1ccc(O)c(O)c1O`, the percent span inhibition was “inactive”. For `C=CS(=O)(=O)c1sc(Cl)c(N2CCOCC2)c1[N+](=O)[O-]`, the percent span inhibition was “inactive”. In the case of `COCCN=c1scc(-c2cccs2)n1/N=C/c1ccc(O)c(O)c1O`, the percent span inhibition was “inactive”. In the case of `CCOc1ncccc1C(=O)OC(C)C(=O)Nc1ccc(CC)cc1` (stereo not given), the percent span inhibition was “inactive”. In the case of `CCCCCCn1nc(C(=O)Nc2nc3c(s2)CCCC3)c2ccccc2c1=O`, the percent span inhibition was “inactive”. `COc1ccc(CC(=O)Nc2ccccc2Oc2ccccc2)cc1` was tested, and the percent span inhibition was “inactive”. With `O=C(c1cccc(Br)c1)N1CCN(c2cnn(-c3ccccc3)c(=O)c2Cl)CC1` the percent span inhibition was “inactive”. For `CCN(CC)c1ccc(-c2nn3c(-c4cccnc4)nnc3s2)cc1`, the percent span inhibition was “inactive”. `Cc1ccc(/C=C/C(=O)Nc2ccc([N+](=O)[O-])c(NC(=O)/C=C/c3ccc(C)o3)c2)o1` was tested, and the percent span inhibition was “inactive”. For `C/C(=N\NC(=O)COc1ccc(C#N)cc1)c1ccccc1OC(F)F`, the percent span inhibition was “inactive”. For `O=C(Cc1ccc(-c2ccccc2)cc1)NC1CCCC1`, the percent span inhibition was “inactive”. With `CNc1ccc(Br)cc(C(=O)/C=C/c2ccc(OC)cc2)c1=O` the percent span inhibition was “inactive”. `COC(=O)Cc1cc(=O)[nH]c(Nc2nc3ccccc3o2)n1` was tested, and the percent span inhibition was “inactive”. With `COc1cc(CNc2ccc(N3CCCC3)cc2)cc(Cl)c1OC` the percent span inhibition was “inactive”. With `Cc1ccc(-n2[nH]c(C)c(/C=N/Nc3ccc([N+](=O)[O-])cc3[N+](=O)[O-])c2=O)cc1C` the percent span inhibition was “inactive”. With `CN(Cc1ccccc1)c1nc2c(c(=O)[nH]c(=O)n2C)n1C` the percent span inhibition was “inactive”. `Cc1cc2nn(-c3cccc4ccccc34)nc2cc1N` was tested, and the percent span inhibition was “inactive”. In the case of `CC(=O)c1ccc2c(c1)C1C=CCC1C(c1ccncc1)N2` (stereo not given), the percent span inhibition was “inactive”. For `O=C(NCCN1CCOCC1)c1cc(Cl)ccc1[N+](=O)[O-]`, the percent span inhibition was “inactive”. In the case of `Cc1nnc2ccc(-c3cccc(NC(=O)c4ccco4)c3)nn12`, the percent span inhibition was “inactive”. With `CCOC(=O)c1snc(-c2ccc(F)cc2)c1N` the percent span inhibition was “inactive”. `COc1ccccc1Oc1ccc2c(c1)C(=O)N(c1ccccc1)C2=O` was tested, and the percent span inhibition was “inactive”. For `Clc1nssc1=Nc1ccccc1`, the percent span inhibition was “inactive”. In the case of `Cc1cc(-c2nn(-c3ccccc3)cc2/C=C2\SC(N)=NC2=O)ccc1OC(C)C`, the percent span inhibition was “inactive”. In the case of `COc1ccc(NC(=O)C2=C(C)NC(=O)NC2c2cccc(OC)c2OC)c(OC)c1` (stereo not given), the percent span inhibition was “inactive”. `N#CC(C#N)=C1C=CC=CN1/C(=C\c1ccco1)C(=O)c1ccccc1` was tested, and the percent span inhibition was “inactive”. In the case of `O=C(NCCCN1CCCC1=O)NC1CCCCC1`, the percent span inhibition was “inactive”. In the case of `Cc1ccc(-c2cc(-c3ccc(F)cc3)nc(N)c2C#N)o1`, the percent span inhibition was “inactive”. For `Cc1cccc(N2CCN(C(=S)Nc3ccc4nc(N5CCN(C)CC5)cc(C)c4c3)CC2)c1C`, the percent span inhibition was “inactive”. `CN(C)S(=O)(=O)N(CC(=O)Nc1ccccc1C(F)(F)F)c1ccccc1` was tested, and the percent span inhibition was “inactive”. With `O=C(O)c1ccc(NS(=O)(=O)c2ccc3c(c2)C(=O)c2ccccc2C3=O)cc1` the percent span inhibition was “inactive”. With `COc1ccccc1OCc1ccc(C(=O)Nc2ccccc2F)cc1` the percent span inhibition was “inactive”. With `Cc1sc(NC(=O)Cn2cnnn2)nc1-c1ccc(Cl)cc1` the percent span inhibition was “inactive”. `CCOC(=O)c1nc(Nc2ccc(N3CCC(C)CC3)cc2)c2ccccc2n1` was tested, and the percent span inhibition was “inactive”. In the case of `CCCC(=O)OCCNc1cc(Sc2nccn2C)c2nonc2c1[N+](=O)[O-]`, the percent span inhibition was “inactive”. With `COc1ccc(CCNC(=O)c2ccc3nc(-c4ccco4)c(-c4ccco4)nc3c2)cc1OC` the percent span inhibition was “inactive”. For `O=C(Nc1ccc2nc(-c3ccco3)c(-c3ccco3)nc2c1)N1CCN(c2ccccn2)CC1`, the percent span inhibition was “inactive”. `Cc1nonc1NC(=O)CSc1nnc(-c2ccoc2C)n1C` was tested, and the percent span inhibition was “inactive”. In the case of `Fc1ccc(C2=Nn3c(Cc4ccccc4F)nnc3SC2)cc1`, the percent span inhibition was “inactive”. In the case of `COc1ccc(NC(=O)c2ccco2)cc1NC(=O)c1ccco1`, the percent span inhibition was “inactive”. With `CCN1/C(=C/C(C)=C/c2sc3ccccc3[n+]2CC)Sc2ccccc21` the percent span inhibition was “inactive”. In the case of `CCOC(=O)c1cc2c(=O)n3cccc(C)c3nc2n(Cc2ccco2)c1=NC(=O)c1ccccc1`, the percent span inhibition was “inactive”. For `CCc1nn2cc(C(=O)c3cc(C)ccc3O)cnc2c1-c1ccc(F)cc1`, the percent span inhibition was “inactive”. `COc1cc(/C=C2/NC(=O)N(Cc3ccccc3F)C2=O)ccc1O` was tested, and the percent span inhibition was “inactive”. In the case of `Cc1ccc(-c2cc(-c3ccccc3Cl)c(C#N)c(N)n2)o1`, the percent span inhibition was “inactive”. `Cc1cccc(-c2nnc3n2N=C(c2ccccc2)CS3)c1` was tested, and the percent span inhibition was “inactive”. `C(=C\c1ccccc1)/CSc1nnc(-c2ccccn2)n1Cc1ccco1` was tested, and the percent span inhibition was “inactive”. With `CN(CCc1ccccn1)C(=O)CCC1CCCN(C(=O)NC2CCCCC2)C1` (stereo not given) the percent span inhibition was “inactive”. In the case of `CNc1ccc(Br)cc(C(=O)/C=C/c2cccc(OC)c2)c1=O`, the percent span inhibition was “inactive”. `Cc1ccc(Nc2nc(-c3ccccc3)c(CC(=O)O)s2)cc1` was tested, and the percent span inhibition was “inactive”. In the case of `O=C(NCCCN1CCN(CCCNC(=O)c2cc([N+](=O)[O-])ccc2Cl)CC1)c1cc([N+](=O)[O-])ccc1Cl`, the percent span inhibition was “inactive”. With `Cc1ccc2cc(C)c(Sc3nnnn3-c3ccccc3)nc2c1` the percent span inhibition was “inactive”.
